Measurements taken from PubChem BioAssay AID2060606 (Molecular Pharmacology Branch, DTP, NCI, 2025).
pIC50: −log10 of the molar value. Values belong to the molecule of their own block, whether it stands above or below them.

Test system: 922993-354-T-J3-PDC complex spheroids, viability, % test/control
Assay: Anticancer human tumor 922993-354-T-J3-PDC patient-derived endometrial carcinoma cell line growth inhibition [CLK]
Conditions: for pIC50: curve of first compound; for viability, T/C: stronger effect = lower value
Outline: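 Patient-derived tumor cells grown as complex spheroids with HUVEC endothelial cells and mesenchymal stem cells, treated with drug combinations. Concentrations descend in half-log steps from near clinical Cmax, or from 10 microM if Cmax unknown.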

[1] = second compound 0.0316 µM, first compound 0.0316 µM
[2] = second compound 0.0316 µM, first compound 0.1 µM
[3] = second compound 0.0316 µM, first compound 0.316 µM
[4] = second compound 0.0316 µM, first compound 1 µM
[5] = second compound 0.0316 µM, first compound 3.16 µM
[6] = second compound 0.0316 µM, first compound 10 µM
[7] = second compound 0.1 µM, first compound 0.0316 µM
[8] = second compound 0.1 µM, first compound 0.1 µM
[9] = second compound 0.1 µM, first compound 0.316 µM
[10] = second compound 0.1 µM, first compound 1 µM
[11] = second compound 0.1 µM, first compound 3.16 µM
[12] = second compound 0.1 µM, first compound 10 µM
[13] = second compound 0.316 µM, first compound 0.0316 µM
[14] = second compound 0.316 µM, first compound 0.1 µM
[15] = second compound 0.316 µM, first compound 0.316 µM
[16] = second compound 0.316 µM, first compound 1 µM
[17] = second compound 0.316 µM, first compound 3.16 µM
[18] = second compound 0.316 µM, first compound 10 µM
[19] = second compound 1 µM, first compound 0.0316 µM
[20] = second compound 1 µM, first compound 0.1 µM
[21] = second compound 1 µM, first compound 0.316 µM
[22] = second compound 1 µM, first compound 1 µM
[23] = second compound 1 µM, first compound 3.16 µM
[24] = second compound 1 µM, first compound 10 µM
[25] = second compound 3.16 µM, first compound 0.0316 µM
[26] = second compound 3.16 µM, first compound 0.1 µM
[27] = second compound 3.16 µM, first compound 0.316 µM
[28] = second compound 3.16 µM, first compound 1 µM
[29] = second compound 3.16 µM, first compound 3.16 µM
[30] = second compound 3.16 µM, first compound 10 µM
[31] = second compound 10 µM, first compound 0.0316 µM
[32] = second compound 10 µM, first compound 0.1 µM
[33] = second compound 10 µM, first compound 0.316 µM
[34] = second compound 10 µM, first compound 1 µM
[35] = second compound 10 µM, first compound 3.16 µM
[36] = second compound 10 µM, first compound 10 µM
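Also: spheroids exposed to the agents for 7 days before readout.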

pIC50 (second compound 0.0316 µM): < 5.00 | pIC50 (second compound 0.1 µM): < 5.00 | pIC50 (second compound 0.316 µM): < 5.00 | pIC50 (second compound 1 µM): > 7.50 | pIC50 (second compound 3.16 µM): > 7.50 | pIC50 (second compound 10 µM): > 7.50
Compound: C#Cc1c(F)ccc2cc(O)cc(-c3ncc4c(N5CC6CCC(C5)N6)nc(OCC56CCCN5CC(F)C6)nc4c3F)c12 (stereo not drawn) + CNC(=O)c1ccc(Nc2nc(OC3CCCC3)c3c(-c4ccc5nc(C)oc5c4)c[nH]c3n2)c(OC)c1
viability, T/C [1]: 115% | viability, T/C [2]: 98.5% | viability, T/C [3]: 103% | viability, T/C [4]: 101% | viability, T/C [5]: 115% | viability, T/C [6]: 94.1% | viability, T/C [7]: 94.9% | viability, T/C [8]: 95.2% | viability, T/C [9]: 116% | viability, T/C [10]: 107% | viability, T/C [11]: 109% | viability, T/C [12]: 97.5% | viability, T/C [13]: 61.4% | viability, T/C [14]: 64.5% | viability, T/C [15]: 63% | viability, T/C [16]: 61.8% | viability, T/C [17]: 57.1% | viability, T/C [18]: 45.6% | viability, T/C [19]: 39.5% | viability, T/C [20]: 40.6% | viability, T/C [21]: 35.5% | viability, T/C [22]: 37% | viability, T/C [23]: 40.8% | viability, T/C [24]: 35.8% | viability, T/C [25]: 29.7% | viability, T/C [26]: 29.4% | viability, T/C [27]: 29.8% | viability, T/C [28]: 30.4% | viability, T/C [29]: 34.3% | viability, T/C [30]: 36.2% | viability, T/C [31]: 30.9% | viability, T/C [32]: 29.4% | viability, T/C [33]: 30.5% | viability, T/C [34]: 33.2% | viability, T/C [35]: 33.1% | viability, T/C [36]: 31.5%

pIC50 (second compound 0.0316 µM): 5.25 | pIC50 (second compound 0.1 µM): 5.25 | pIC50 (second compound 0.316 µM): 5.46 | pIC50 (second compound 1 µM): > 7.50 | pIC50 (second compound 3.16 µM): > 7.50 | pIC50 (second compound 10 µM): > 7.50
Compound: C=C(F)C(=O)N1CCN(c2nc(OCC3CCCN3C)nc3c2CCN(c2cccc4cccc(Cl)c24)C3)CC1CC#N (stereo not drawn) + CNC(=O)c1ccc(Nc2nc(OC3CCCC3)c3c(-c4ccc5nc(C)oc5c4)c[nH]c3n2)c(OC)c1
viability, T/C [1]: 109% | viability, T/C [2]: 99.7% | viability, T/C [3]: 97.5% | viability, T/C [4]: 105% | viability, T/C [5]: 94.8% | viability, T/C [6]: 6.03% | viability, T/C [7]: 89.8% | viability, T/C [8]: 104% | viability, T/C [9]: 90.7% | viability, T/C [10]: 91.9% | viability, T/C [11]: 103% | viability, T/C [12]: 4.38% | viability, T/C [13]: 61.1% | viability, T/C [14]: 50.1% | viability, T/C [15]: 58.1% | viability, T/C [16]: 44% | viability, T/C [17]: 57.4% | viability, T/C [18]: 3.61% | viability, T/C [19]: 36.6% | viability, T/C [20]: 36.2% | viability, T/C [21]: 32.7% | viability, T/C [22]: 38.5% | viability, T/C [23]: 47% | viability, T/C [24]: 0.95% | viability, T/C [25]: 28.3% | viability, T/C [26]: 32% | viability, T/C [27]: 29.9% | viability, T/C [28]: 31.3% | viability, T/C [29]: 36.6% | viability, T/C [30]: 4.89% | viability, T/C [31]: 29% | viability, T/C [32]: 33.1% | viability, T/C [33]: 30.9% | viability, T/C [34]: 29.8% | viability, T/C [35]: 38% | viability, T/C [36]: 5.43%

pIC50 (second compound 0.0316 µM): < 5.00 | pIC50 (second compound 0.1 µM): < 5.00 | pIC50 (second compound 0.316 µM): < 5.00 | pIC50 (second compound 1 µM): > 7.50 | pIC50 (second compound 3.16 µM): > 7.50 | pIC50 (second compound 10 µM): > 7.50
Compound: C=CC(=O)N1CCN(c2nc(=O)n(-c3c(C)ccnc3C(C)C)c3nc(-c4c(O)cccc4F)c(F)cc23)C(C)C1 (stereo not drawn) + CNC(=O)c1ccc(Nc2nc(OC3CCCC3)c3c(-c4ccc5nc(C)oc5c4)c[nH]c3n2)c(OC)c1
viability, T/C [1]: 106% | viability, T/C [2]: 105% | viability, T/C [3]: 102% | viability, T/C [4]: 103% | viability, T/C [5]: 106% | viability, T/C [6]: 78.6% | viability, T/C [7]: 86.2% | viability, T/C [8]: 104% | viability, T/C [9]: 101% | viability, T/C [10]: 103% | viability, T/C [11]: 103% | viability, T/C [12]: 94.5% | viability, T/C [13]: 66.9% | viability, T/C [14]: 69% | viability, T/C [15]: 64% | viability, T/C [16]: 61.1% | viability, T/C [17]: 69.3% | viability, T/C [18]: 47.5% | viability, T/C [19]: 33.8% | viability, T/C [20]: 32.8% | viability, T/C [21]: 34.6% | viability, T/C [22]: 36.2% | viability, T/C [23]: 41.4% | viability, T/C [24]: 44.8% | viability, T/C [25]: 34.3% | viability, T/C [26]: 31.2% | viability, T/C [27]: 30.6% | viability, T/C [28]: 33.3% | viability, T/C [29]: 36.4% | viability, T/C [30]: 38.1% | viability, T/C [31]: 27.6% | viability, T/C [32]: 28.6% | viability, T/C [33]: 31.9% | viability, T/C [34]: 33% | viability, T/C [35]: 34.1% | viability, T/C [36]: 37.3%

pIC50 (second compound 0.0316 µM): < 5.00 | pIC50 (second compound 0.1 µM): < 5.00 | pIC50 (second compound 0.316 µM): < 5.00 | pIC50 (second compound 1 µM): > 7.50 | pIC50 (second compound 3.16 µM): > 7.50 | pIC50 (second compound 10 µM): > 7.50
Compound: CC(CO)NC(=O)c1cc(-c2ccc(Cl)cc2)nn(-c2cnn(C)c2)c1=O (stereo not drawn) + CNC(=O)c1ccc(Nc2nc(OC3CCCC3)c3c(-c4ccc5nc(C)oc5c4)c[nH]c3n2)c(OC)c1
viability, T/C [1]: 108% | viability, T/C [2]: 100% | viability, T/C [3]: 101% | viability, T/C [4]: 101% | viability, T/C [5]: 102% | viability, T/C [6]: 98.6% | viability, T/C [7]: 113% | viability, T/C [8]: 102% | viability, T/C [9]: 91.3% | viability, T/C [10]: 103% | viability, T/C [11]: 118% | viability, T/C [12]: 75.4% | viability, T/C [13]: 59% | viability, T/C [14]: 57.4% | viability, T/C [15]: 56.9% | viability, T/C [16]: 48% | viability, T/C [17]: 59.3% | viability, T/C [18]: 57.8% | viability, T/C [19]: 38.9% | viability, T/C [20]: 34% | viability, T/C [21]: 33.5% | viability, T/C [22]: 39.9% | viability, T/C [23]: 47.7% | viability, T/C [24]: 34.3% | viability, T/C [25]: 30.5% | viability, T/C [26]: 31% | viability, T/C [27]: 30% | viability, T/C [28]: 30.9% | viability, T/C [29]: 37.9% | viability, T/C [30]: 36% | viability, T/C [31]: 34.2% | viability, T/C [32]: 30.3% | viability, T/C [33]: 29.9% | viability, T/C [34]: 26.9% | viability, T/C [35]: 32.5% | viability, T/C [36]: 30.7%
